Here are results for three molecules from US10023541B2, “Urea compounds and their use as enzyme inhibitors” (BIAL-PORTELA & CA, S.A., priority 2012, dated 2018).

The structures appear in SMILES notation. Read-outs that look alike come from different tables or passages of the source.

Data set [1] concerns the target T1, FAAH (Mus musculus, UniProt O08914).
T1 construct: A fragment of liver, left lung lobe and brain without cerebellum were removed; from tissue; host or cells: mouse brain, liver and lung homogenates
T1 sequence (O08914 1-579): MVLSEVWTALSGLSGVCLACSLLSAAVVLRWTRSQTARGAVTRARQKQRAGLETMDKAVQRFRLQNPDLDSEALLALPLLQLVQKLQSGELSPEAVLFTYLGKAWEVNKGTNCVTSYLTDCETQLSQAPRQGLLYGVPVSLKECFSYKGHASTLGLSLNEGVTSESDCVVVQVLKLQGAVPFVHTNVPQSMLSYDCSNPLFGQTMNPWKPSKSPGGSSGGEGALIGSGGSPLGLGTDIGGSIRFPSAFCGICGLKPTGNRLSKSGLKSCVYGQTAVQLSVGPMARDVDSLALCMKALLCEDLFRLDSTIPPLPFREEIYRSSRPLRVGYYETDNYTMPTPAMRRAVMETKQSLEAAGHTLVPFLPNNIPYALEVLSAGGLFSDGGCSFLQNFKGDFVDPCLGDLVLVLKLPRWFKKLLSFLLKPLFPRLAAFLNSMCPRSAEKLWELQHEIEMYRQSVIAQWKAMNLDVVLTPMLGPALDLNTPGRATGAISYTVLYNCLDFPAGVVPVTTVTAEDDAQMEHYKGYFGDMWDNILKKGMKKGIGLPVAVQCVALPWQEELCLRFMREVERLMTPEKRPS
The data set is described as follows: In vivo protocol: FAAH activity in tissue homogenates after oral dosing of mice. As to conditions: for Peripheral Selectivity: FAAH activity in liver divided by FAAH activity in brain, lower = more peripherally selective; for activity at 3 mg/kg / activity at 0.1 mg/kg / activity at 1 mg/kg / activity at 10 mg/kg: mouse. On the procedure: In vivo testing was performed according to the protocol described below. BRh (brain homogenate) indicates inhibition in central nervous tissue, in this case, brain, and LVh (liver homogenate) indicates inhibition in peripheral tissue, in this case, liver. The controls were the reaction mix minus the test compounds. Therefore, a low value for the test compound indicates a strong inhibitor.
The animals used for experiments were male NMRI mice (weighing 27-44 g) obtained from Interfauna Ibérica (Spain). Mice were kept 5 per cage, under controlled environmental conditions (12 hr light/dark cycle and room temperature 221° C.). Food and tap water were allowed ad libitum and the experiments were all carried out during daylight hours.
[…] compounds via oral route (8 ml/kg; compound suspended in 0.5% carboxymethylcellulose (CMC) or solubilized in water) or vehicle (controls) using animal feeding stainless steel curve needles (Perfectum, U.S.A.). Fifteen minutes before sacrifice animal were anesthetized with pentobarbital 60 mg/kg administered intraperitoneally. A fragment of liver, left lung lobe and brain without cerebellum were removed and put in plastic vials containing membrane buffer (3 mM MgCl2, 1 mM EDTA, 50 mM Tris HCl pH 7.4). Tissues were stored at −30° C. until analysis.
Animals were always fasted overnight before administration of compounds except for time points of >18 h, where food was removed on the morning of day of administration and the compound was administered in the afternoon of the same day. Animals were then given water but nothing else.
Tissues were thawed on ice and were homogenized in 10 volumes of membrane buffer (3 mM MgCl2, 1 mM EDTA, 50 mM Tris HCl pH 7.4) with either Potter-Elvejhem (brains—8 strokes at 500 rpm) or Heidolph Diax (livers—2 strokes at position 5 for 20 sec with 30 sec pauses).
Total protein in tissues was determined with the BioRad Protein Assay (BioRad) using a standard curve of BSA (50-250 μg/ml).
Reaction mix (total volume of 200 μl) contained: 2 μM AEA (2 μM AEA+5 nM ^3H-AEA), 0.1% fatty acid free BSA, 15 μg (brain), 5 μg (liver) or 50 μg (lung) protein, in 1 mM EDTA, 10 mM Tris pH 7.6. After a 15 min pre-incubation period at 37° C. reaction was started by the addition of the substrate solution (cold AEA+radiolabelled AEA+BSA). Reaction was carried out for 10 min (brain and lung) or 7 min (liver) before termination by the addition of 400 μl activated charcoal suspension (8 g charcoal in 32 ml 0.5 M HCl in continuous agitation). After a 30 min incubation period at room temperature with agitation, charcoal was sedimented by centrifugation in microfuge (10 min at 13000 rpm). 200 μl of the supernatant were added to 800 μl Optiphase Supermix scintillation cocktail previously distributed in 24-well plates. Counts per minute (cpm) were determined in a MicrobetaTriLux scintillation counter.
In each assay blanks (without protein) were prepared.
The percentage of remaining enzymatic activity was calculated with respect to controls and after blank subtraction.

Data set [2] addresses T1, FAAH. The data set can be described thus: ED50 determination of FAAH inhibition in liver after p.o. administration. Particulars: po, read-out: Liver ED50 (95CI). Format: in vivo. An excerpt: Confidence intervals (95%) are included.
Data set [3] in a line: CYPs metabolic stability assay in MLM. It counts as in vitro ADME, mouse. Particulars: 1 h, 50 μM; for Metabolic Stability (% of Remaining) Mouse CYP+: with NADPH; for Metabolic Stability (% of Remaining) Mouse CYP−: without NADPH. On the procedure:
(§1) Stability of the test compounds was performed in MLM (mouse liver microsomes) or HLM (human liver microsomes) in the presence and in the absence of NADPH.
(§2) The stability was measured using the incubation mixture (100 μl total volume) contained 1 mg/ml total protein, MgCl2 5 mM and 50 mM K-phosphate buffer. Samples were incubated in the presence and in the absence of NADPH 1 mM. Reactions were pre-incubated 5 min and the reaction initiated with the compound under test (5 μM for HLM and 50 μM for MLM). Samples were incubated for 60 min in a shaking water bath at 37° C. The reaction was stopped by adding 100 μl of acetonitrile. Samples were then centrifuged, filtered and supernatant injected in HLPC-MSD. Test compounds were dissolved in DMSO and the final concentration of DMSO in the reaction was below 0.5% (v/v). At TO acetonitrile was added before adding the compound. All experiments were performed with samples in duplicate.
(§3) The stability data are given as % of remaining compound after 1 h exposure to MLM or HLM. 100% means no metabolic reaction at all and 0% corresponds to full enzymatic degradation. “CYP−” refers to the absence of cofactor (NADPH) which is essential for CYP metabolic reactions. Therefore “CYP−” can be regarded as control value. “CYP+” refers to the presence of cofactor and the enzymatic degradation may take place according to the stability of the test compound.

A short description of data set [4]: CYPs metabolic stability assay in HLM. It counts as in vitro ADME, human. Particulars: 1 h, 5 μM; for Metabolic Stability (% of Remaining) Human CYP+: with NADPH; for Metabolic Stability (% of Remaining) Human CYP−: without NADPH. On the procedure:
as §1, §2, §3

The target of data set [5] is T2, FAAH (Rattus norvegicus, UniProt P97612).
T2 construct: Frozen brains from 4 Wistar rats were homogenized; from tissue; host or cells: Wistar rat brain membranes
T2 sequence (P97612 1-579): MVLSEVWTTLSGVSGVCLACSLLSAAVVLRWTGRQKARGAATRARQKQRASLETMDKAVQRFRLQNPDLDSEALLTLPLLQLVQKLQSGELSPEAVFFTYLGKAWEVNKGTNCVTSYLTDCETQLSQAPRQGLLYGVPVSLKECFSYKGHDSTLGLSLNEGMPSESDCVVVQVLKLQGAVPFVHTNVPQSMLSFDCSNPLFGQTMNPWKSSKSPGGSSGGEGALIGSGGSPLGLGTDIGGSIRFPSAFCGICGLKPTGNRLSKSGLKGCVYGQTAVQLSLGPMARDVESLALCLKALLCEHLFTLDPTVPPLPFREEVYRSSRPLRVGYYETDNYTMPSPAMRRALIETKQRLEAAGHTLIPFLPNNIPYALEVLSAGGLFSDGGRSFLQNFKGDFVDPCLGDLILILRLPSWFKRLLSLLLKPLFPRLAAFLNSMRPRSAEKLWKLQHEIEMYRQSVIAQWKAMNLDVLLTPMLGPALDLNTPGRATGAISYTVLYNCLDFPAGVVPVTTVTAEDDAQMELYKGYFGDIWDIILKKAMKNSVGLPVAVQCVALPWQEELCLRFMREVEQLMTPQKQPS
The data set can be described thus: Determination of IC50 in rat brain membrane FAAH enzymatic assay (3H-AEA). It counts as biochemical. Particulars: rat brain membranes, 2 μM AEA, 15 min preincubation. On the procedure: Anandamide[ethanolamine-1-^3H-] was obtained from American Radiochemicals—with a specific activity of 60 Ci/mmol. All other reagents were obtained from Sigma-Aldrich. Optiphase Supermix was obtained from Perkin Elmer and activated charcoal was obtained from Sigma.
Frozen brains from 4 Wistar rats were homogenized in 20 ml 1 mM MgCl2, 20 mM HEPES (4-(2-hydroxyethyl)-1-piperazineethanesulfonic acid) pH 7.0 with Potter-Elvejhem (8 strokes at 500 rpm). Homogenates were centrifuged for 20 min at 36000 g at 4° C. (Beckman, 70Ti rotor). Pellets were resuspended in 15 ml of the same buffer and centrifuged under the same conditions. Pellets were resuspended in 15 ml of the same buffer and incubated for 15 min at 37° C. after which they were centrifuged for 20 min at 36000 g at 4° C. Each pellet was then resuspended in 10 ml 3 mM MgCl2, 1 mM EDTA (Ethylenediaminetetraacetic acid), 50 mM Tris (2-Amino-2-hydroxymethyl-propane-1,3-diol) pH 7.4 and protein determined with the BioRad Protein Assay (BioRad) using a standard curve of BSA (Bovine Serum Albumin) (50-250 μg/ml).
Reaction mix (total volume of 200 μl) contained: 2 μM AEA (2 μM AEA+5 nM ^3H-AEA), 0.1% fatty acid free BSA, 5 or 10 μg protein, in 1 mM EDTA, 10 mM Tris pH 7.6 and compound 1 at various concentrations. […] Counts per minute (CPM) or disintegrations per minute (DPM) were determined in a MicrobetaTriLux scintillation counter. […]

Where [6] appears, read: po, brain homogenate, 3 mg/kg po, 8 h, % remaining activity vs control, read-out: FAAH Activity (%) Br. h. 3 mg/kg. 8 h. po.
[7] abbreviates: po, liver homogenate, 3 mg/kg po, 8 h, % remaining activity vs control, read-out: FAAH Activity (%) Lv. h. 3 mg/kg. 8 h. po.
Where [8] appears, read: 1 h, 3 mg/kg, read-out: FAAH Activity (%) mouse Liver.
[9] abbreviates: 8 h, 0.1 mg/kg, read-out: FAAH Activity (%) mouse Liver.
Setting [10] is: 8 h, read-out: FAAH Activity (%) mouse Liver.
[11] abbreviates: 8 h, 3 mg/kg, read-out: FAAH Activity (%) mouse Liver.

For the molecule `CN(C(=O)n1cnc(-c2cccc(NC(=N)N)c2)c1)C1CCCCC1` [Comparator Compound 1, N-cyclohexyl-4-(3-guanidinophenyl)-N-methyl-1H-imidazole-1-carboxamide], the “Peripheral Selectivity” value on FAAH [1] (3 mg/kg po, 8 h) stood at 0.235. Moreover, the activity at 3 mg/kg turned out to be 86.2% on FAAH [1] (setting [6]) and 20.3% at FAAH [1] (setting [7]).
With `CN(C(=O)n1cnc(-c2ccc(F)c(O)c2)c1)C1CCCC1` [Comparator Compound 2, N-cyclopentyl-4-(4-fluoro-3-hydroxyphenyl)-N-methyl-1H-imidazole-1-carboxamide], the “Peripheral Selectivity” value at FAAH [1] (3 mg/kg po, 8 h) turned out to be 0.017. Also, the activity at 3 mg/kg on FAAH [1] (setting [8]) was found to be 17%. The activity at 0.1 mg/kg at FAAH [1] (setting [9]) was found to be 73.8%. At FAAH [1] (setting [10]), the activity at 1 mg/kg came to 4.9% and the activity at 10 mg/kg was 1.2%. Besides, the activity at 3 mg/kg on FAAH [1] (setting [11]) came out at 2.1%. In addition, the activity at 3 mg/kg at FAAH [1] (setting [6]) was determined as 121%. In addition, the activity at 3 mg/kg at FAAH [1] (setting [7]) is 2.1%. Besides, the median effective dose (ED50) on FAAH [2] (Time 8 h) came out at 0.17 mg/kg. Also, in data set [3], the “Metabolic Stability (% of Remaining) Mouse CYP+” value amounted to 53% and the “Metabolic Stability (% of Remaining) Mouse CYP−” value was found to be 92%. Besides, in data set [4], the “Metabolic Stability (% of Remaining) Human CYP+” value is 70% and the “Metabolic Stability (% of Remaining) Human CYP−” value turned out to be 92%.
With `CN(C(=O)n1cnc(-c2cccc(NC(N)=O)c2)c1)C1CCCC1` [Compound 1, N-Cyclopentyl-N-methyl-4-(3-ureidophenyl)-1H-imidazole-1-carboxamide], the “Peripheral Selectivity” value on FAAH [1] (3 mg/kg po, 8 h) worked out at 0.008. The “factor by which most peripherally selective compound” value on FAAH [1] (compared with comparator compounds, 3 mg/kg po, 8 h) is recorded as > 2. Moreover, the “fold more potent than comparator compound 2” value at FAAH [1] (mouse liver, 0.1 mg/kg, 8 h post-dose) was “more than 10 fold”. For the same molecule, at FAAH [1] (setting [8]), the activity at 3 mg/kg was found to be 1.9%. Besides, the activity at 0.1 mg/kg on FAAH [1] (setting [9]) came to 6.4%. At FAAH [1] (setting [10]), the activity at 1 mg/kg came out at 1.6% and the activity at 10 mg/kg was determined as 0.4%. Further, the activity at 3 mg/kg at FAAH [1] (setting [11]) came out at 0.7%. At FAAH [1] (setting [6]), the activity at 3 mg/kg worked out at 85.1%. On FAAH [1] (setting [7]), the activity at 3 mg/kg was 0.7%. Besides, the ED50 at FAAH [2] amounted to 0.03 mg/kg. Besides, in data set [3], the “Metabolic Stability (% of Remaining) Mouse CYP+” value turned out to be 96% and the “Metabolic Stability (% of Remaining) Mouse CYP−” value is reported as 95%. Besides, in data set [4], the “Metabolic Stability (% of Remaining) Human CYP+” value amounted to 82% and the “Metabolic Stability (% of Remaining) Human CYP−” value came out at 99%. This molecule showed an IC50 at FAAH [5] of 27 nM.

In general, ED50 refers to the midpoint of the dose-response relation. By IC50 is commonly meant the concentration at which inhibition is half-maximal.
